Test results: patent US10696693B2, “Fused imidazole derivatives as TGF-beta inhibitors” (Rigel Pharmaceuticals, Inc., priority 2014, dated 2020)
Read-outs that look alike come from different tables or passages of the source.

Key:
[1] = system: TGF-β; assay: AlphaScreen SureFire p-SMAD3 (Ser423/425) assay, TGF-β-stimulated cells; assay type: cell-based; settings: Mus musculus
In short: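 The p-SMAD-3 (Ser423/425) SureFire assay measured phosphorylation of endogenous SMAD-3 in cell lysates. Cells were plated overnight in collagen-coated plates, exposed to three-fold serially diluted compounds for about 10 minutes, then stimulated with TGFβ. Lysates (5 μL) received acceptor bead mix for 2 hours, then donor beads for 1½ hours before AlphaScreen reading.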

[2] = system: GDF8; assay: AlphaScreen SureFire p-SMAD3 (Ser423/425) assay, GDF8-stimulated cells; assay type: cell-based; settings: Mus musculus
In short: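 A SureFire AlphaScreen assay measured phosphorylation of endogenous SMAD-3 at Ser423/425 in cell lysates. Cells were treated with three-fold serially diluted compounds in DMSO for about 10 minutes, then stimulated with GDF8. After medium removal, cells were lysed in 1× Lysis Buffer (about 25 μL) with gentle shaking for 5-10 minutes.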

[3] = p-SMAD3 (Ser423/425) AlphaScreen in cell lysate, MPC-11, TGF-β stimulation, read-out: TGF-β: inhibition of TGF-β signaling, TGF-β pSMAD (MPC-11)
[4] = MPC-11, p-SMAD3 (Ser423/425) AlphaScreen in cell lysate, MPC11, GDF8 stimulation, read-out: GDF8: inhibition of GDF8 signaling, GDF pSMAD (MPC11)
[5] = MPC-11, read-out: TGF-β: inhibition of TGF-β signaling, TGF-β pSMAD (MPC-11), p-SMAD3 (Ser423/425) AlphaScreen in cell lysate, TGF-β stimulation
[6] = MPC-11, read-out: GDF8: inhibition of GDF8 signaling, GDF pSMAD (MPC11), p-SMAD3 (Ser423/425) AlphaScreen in cell lysate, GDF8 stimulation

## FC(F)(F)c1cccc(-c2nc3n(c2-c2ccc4nccnc4c2)CCC3)c1 [Compound 184, 6-(2-(3-(trifluoromethyl)phenyl)-6,7-dihydro-5H-pyrrolo[1,2-a]imidazol-3-yl)quinoxaline]
[1]; [3]
  IC50: 0.1 to 1 µM
[2]; [4]
  IC50: 0.05 to 0.1 µM

## Fc1ccccc1-c1nc2n(c1-c1ccc3nccnc3c1)CCC2 [Compound 200, 6-(2-(2-fluorophenyl)-6,7-dihydro-5H-pyrrolo[1,2-a]imidazol-3-yl)quinoxaline]
[1]; [3]
  IC50: > 1 µM
[2]; [4]
  IC50: 0.1 to 1 µM

## FC(F)(F)c1cccc(-c2nc3n(c2-c2ccc4ncsc4c2)CCC3)c1 [Compound 183, 6-(2-(3-(trifluoromethyl)phenyl)-6,7-dihydro-5H-pyrrolo[1,2-a]imidazol-3-yl)benzo[d]thiazole]
[1]; [3]
  IC50: 0.1 to 1 µM
[2]; [4]
  IC50: 0.05 to 0.1 µM

## Fc1cc(-c2nc3n(c2-c2ccc4[nH]ncc4c2)CCC3)cc(F)c1F [Compound 228, 5-(2-(3,4,5-trifluorophenyl)-6,7-dihydro-5H-pyrrolo[1,2-a]imidazol-3-yl)-1H-indazole]
[1]; [5]
  IC50: 0.1 to 1 µM
[2]; [6]
  IC50: 0.1 to 1 µM

## CN(C)CCOc1cnc2ccc(-c3c(-c4cc(Cl)ccc4F)nc4n3CCC4)cc2n1 [Compound 363, 2-((7-(2-(5-chloro-2-fluorophenyl)-6,7-dihydro-5H-pyrrolo[1,2-a]imidazol-3-yl)quinoxalin-2-yl)oxy)-N,N-dimethylethan-1-amine]
[1]; [3]
  IC50: < 0.05 µM
[2]; [4]
  IC50: < 0.05 µM

## c1ccc(-c2nc3n(c2-c2ccc4nccnc4c2)CCC3)nc1 [Compound 368, 6-(2-(pyridin-2-yl)-6,7-dihydro-5H-pyrrolo[1,2-a]imidazol-3-yl)quinoxaline]
[1]; [3]
  IC50: 0.05 to 0.1 µM
[2]; [4]
  IC50: 0.05 to 0.1 µM

## Fc1cc(Cl)c(-c2nc3n(c2-c2ccc4nccnc4c2)CCC3)cc1F [Compound 291, 6-(2-(2-chloro-4,5-difluorophenyl)-6,7-dihydro-5H-pyrrolo[1,2-a]imidazol-3-yl)quinoxaline]
[1]; [5]
  IC50: 0.1 to 1 µM
[2]; [6]
  IC50: 0.05 to 0.1 µM

## O=C(O)C1Cn2c(nc(-c3cc(F)cc(F)c3F)c2-c2ccc3nccnc3c2)N1 (stereo not shown) [Compound 125, 5-(quinoxalin-6-yl)-6-(2,3,5-trifluorophenyl)-2,3-dihydro-1H-imidazo[1,2-a]imidazole-2-carboxylic acid]
[1]; [3]
  IC50: < 0.05 µM
[2]; [4]
  IC50: 0.05 to 0.1 µM

## Cc1cccc(-c2nc3n(c2-c2ccc4cn[nH]c4c2)CCC3)c1 [Compound 169, 6-(2-(m-tolyl)-6,7-dihydro-5H-pyrrolo[1,2-a]imidazol-3-yl)-1H-indazole]
[1]; [3]
  IC50: 0.05 to 0.1 µM
[2]; [4]
  IC50: < 0.05 µM

## Cc1cc(-c2nc3n(c2-c2ccc4nccnc4c2)CCC3)ccc1F [Compound 179, 6-(2-(4-fluoro-3-methylphenyl)-6,7-dihydro-5H-pyrrolo[1,2-a]imidazol-3-yl)quinoxaline]
[1]; [3]
  IC50: 0.1 to 1 µM
[2]; [4]
  IC50: 0.05 to 0.1 µM

## Cc1c(F)ccc(-c2nc3n(c2-c2ccc4nccn4c2)CCC3)c1F [Compound 46, 6-(2-(2,4-difluoro-3-methylphenyl)-6,7-dihydro-5H-pyrrolo[1,2-a]imidazol-3-yl)imidazo[1,2-a]pyridine]
[1]; [3]
  IC50: 0.1 to 1 µM
[2]; [4]
  IC50: 0.1 to 1 µM

## CC(C)c1nnc2ccc(-c3c(-c4cc(F)cc(F)c4F)nc4n3CCC4)cn12 [Compound 22, 3-isopropyl-6-(2-(2,3,5-trifluorophenyl)-6,7-dihydro-5H-pyrrolo[1,2-a]imidazol-3-yl)-[1,2,4]triazolo[4,3-a]pyridine]
[1]; [3]
  IC50: > 1 µM
[2]; [4]
  IC50: > 1 µM

## Fc1cc(-c2nc3n(c2-c2ccc4ncccc4c2)CCC3)cc(F)c1F [Compound 247, 6-(2-(3,4,5-trifluorophenyl)-6,7-dihydro-5H-pyrrolo[1,2-a]imidazol-3-yl)quinoline]
[1]; [3]
  IC50: > 1 µM
[2]; [4]
  IC50: 0.1 to 1 µM

## Cc1c(F)ccc(-c2nc3n(c2-c2ccc4[nH]ncc4c2)CCC3)c1F [Compound 280, 5-(2-(2,4-difluoro-3-methylphenyl)-6,7-dihydro-5H-pyrrolo[1,2-a]imidazol-3-yl)-1H-indazole]
[1]; [3]
  IC50: 0.1 to 1 µM
[2]; [4]
  IC50: 0.05 to 0.1 µM

## O=S(=O)(Nc1cccc(-c2nc3n(c2-c2ccc4nccn4c2)CCC3)c1)c1ccccc1F [Compound 70, 2-fluoro-N-(3-(3-(imidazo[1,2-a]pyridin-6-yl)-6,7-dihydro-5H-pyrrolo[1,2-a]imidazol-2-yl)phenyl)benzenesulfonamide]
[1]; [3]
  IC50: > 1 µM
[2]; [4]
  IC50: > 1 µM

## CNC(=O)C1CCC2(CC1)Cc1nc(-c3ccc(F)cc3)c(-c3ccc4ncnn4c3)n1C2 (stereo not shown) [Compound 78, 3′-([1,2,4]triazolo[1,5-a]pyridin-6-yl)-2′-(4-fluorophenyl)-N-methyl-5′H,7′H-spiro[cyclohexane-1,6′-pyrrolo[1,2-a]imidazole]-4-carboxamide]
[1]; [3]
  IC50: > 1 µM
[2]; [4]
  IC50: > 1 µM

## Fc1ccc(-c2cn3ccoc3n2)cc1F [Compound 131, 6-(3,4-difluorophenyl)imidazo[2,1-b]oxazole]
[1]; [3]
  IC50: > 1 µM
[2]; [4]
  IC50: > 1 µM

## Cc1ccc(-c2nc3n(c2-c2ccc4ncnn4c2)CCC3)c(F)c1F [Compound 26, 6-(2-(2,3-difluoro-4-methylphenyl)-6,7-dihydro-5H-pyrrolo[1,2-a]imidazol-3-yl)-[1,2,4]triazolo[1,5-a]pyridine]
[1]; [3]
  IC50: > 1 µM
[2]; [4]
  IC50: > 1 µM

## Fc1cccc(-c2nc3n(c2-c2ccc4cn[nH]c4c2)CCC3)c1 [Compound 194, 6-(2-(3-fluorophenyl)-6,7-dihydro-5H-pyrrolo[1,2-a]imidazol-3-yl)-1H-indazole]
[1]; [5]
  IC50: > 1 µM
[2]; [6]
  IC50: 0.1 to 1 µM

## Fc1ccc(-c2nc3n(c2-c2ccc4nccnc4c2)CCC3)c(F)c1 [Compound 204, 6-(2-(2,4-difluorophenyl)-6,7-dihydro-5H-pyrrolo[1,2-a]imidazol-3-yl)quinoxaline]
[1]; [3]
  IC50: 0.1 to 1 µM
[2]; [4]
  IC50: 0.1 to 1 µM

## OCC1CCC2(CC1)Cc1nc(-c3ccc(F)cc3)c(-c3ccc4nccnc4c3)n1C2 (stereo not shown) [Compound 336, (2′-(4-fluorophenyl)-3′-(quinoxalin-6-yl)-5′H,7′H-spiro[cyclohexane-1,6′-pyrrolo[1,2-a]imidazol]-4-yl)methanol]
[1]; [5]
  IC50: > 1 µM
[2]; [6]
  IC50: > 1 µM

## Fc1ccc(-c2nc3n(c2-c2ccc4nccnc4c2)CCC3)cc1Cl [Compound 266, 6-(2-(3-chloro-4-fluoropheny)-6,7-dihydro-5H-pyrrolo[1,2-a]imidazol-3-yl)quinoxaline]
[1]; [3]
  IC50: 0.1 to 1 µM
[2]; [4]
  IC50: 0.05 to 0.1 µM

## Cc1cc(-c2nc3n(c2-c2ccc4ncsc4c2)CCC3)cc(Cl)c1F [Compound 273, 6-(2-(3-chloro-4-fluoro-5-methylpheny)-6,7-dihydro-5H-pyrrolo[1,2-a]imidazol-3-yl)benzo[d]thiazole]
[1]; [3]
  IC50: > 1 µM
[2]; [4]
  IC50: > 1 µM

## CC(C)c1nnc2ccc(-c3c(-c4cc(F)c(F)cc4F)nc4n3CCC4)cn12 [Compound 21, 3-isopropyl-6-(2-(2,4,5-trifluorophenyl)-6,7-dihydro-5H-pyrrolo[1,2-a]imidazol-3-yl)-[1,2,4]triazolo[4,3-a]pyridine]
[1]; [3]
  IC50: > 1 µM
[2]; [4]
  IC50: > 1 µM

## Fc1ccc(-c2nc3n(c2-c2ccc4ncsc4c2)CCC3)c(F)c1F [Compound 226, 6-(2-(2,3,4-trifluorophenyl)-6,7-dihydro-5H-pyrrolo[1,2-a]imidazol-3-yl)benzo[d]thiazole]
[1]; [5]
  IC50: 0.1 to 1 µM
[2]; [6]
  IC50: 0.1 to 1 µM

## COc1c(C)cc(-c2nc3n(c2-c2ccc4ncccc4c2)CCC3)cc1C [Compound 259, 6-(2-(4-methoxy-3,5-dimethylphenyl)-6,7-dihydro-5H-pyrrolo[1,2-a]imidazol-3-yl)quinoline]
[1]; [3]
  IC50: > 1 µM
[2]; [4]
  IC50: > 1 µM

## Cc1cc(-c2nc3n(c2-c2ccc4nccnc4c2)CCC3)cc(Cl)c1F [Compound 274, 6-(2-(3-chloro-4-fluoro-5-methylpheny)-6,7-dihydro-5H-pyrrolo[1,2-a]imidazol-3-yl)quinoxaline]
[1]; [3]
  IC50: > 1 µM
[2]; [4]
  IC50: > 1 µM

## Fc1ccc(-c2nc3n(c2-c2ccc4ncnn4c2)CC2(CCCC2)C3)cc1 [Compound 71, 3′-([1,2,4]triazolo[1,5-a]pyridin-6-yl)-2′-(4-fluorophenyl)-5′H,7′H-spiro[cyclopentane-1,6′-pyrrolo[1,2-a]imidazole]]
[1]; [5]
  IC50: > 1 µM
[2]; [6]
  IC50: > 1 µM

## OCC1CCC2(CC1)Cc1nc(-c3ccc(F)cc3)c(-c3ccc4ncnn4c3)n1C2 (stereo not shown) [Compound 75, (3′-([1,2,4]triazolo[1,5-a]pyridin-6-yl)-2′-(4-fluorophenyl)-5′H,7′H-spiro[cyclohexane-1,6′-pyrrolo[1,2-a]imidazol]-4-yl)methanol]
[1]; [5]
  IC50: > 1 µM
[2]; [6]
  IC50: > 1 µM

## Cc1cc(F)ccc1-c1nc2n(c1-c1ccc3nccn3c1)CCC2 [Compound 55, 6-(2-(4-fluoro-2-methylphenyl)-6,7-dihydro-5H-pyrrolo[1,2-a]imidazol-3-yl)imidazo[1,2-a]pyridine]
[1]; [3]
  IC50: > 1 µM
[2]; [4]
  IC50: 0.1 to 1 µM

## Fc1cc(F)c(F)c(-c2nc3n(c2-c2ccc4ncnn4c2)CCCN3)c1 [Compound 166, 6-(2-(2,3,5-trifluorophenyl)-5,6,7,8-tetrahydroimidazo[1,2-a]pyrimidin-3-yl)-[1,2,4]triazolo[1,5-a]pyridine]
[1]; [3]
  IC50: 0.05 to 0.1 µM
[2]; [4]
  IC50: 0.05 to 0.1 µM

## Fc1cccc(-c2nc3n(c2-c2ccc4nccnc4c2)CCC3)c1 [Compound 196, 6-(2-(3-fluorophenyl)-6,7-dihydro-5H-pyrrolo[1,2-a]imidazol-3-yl)quinoxaline]
[1]; [5]
  IC50: > 1 µM
[2]; [6]
  IC50: 0.1 to 1 µM
